# Earlier results in patent US20040047892A1, “Filler composition for soft tissue augmentation and reconstructive surgery” (priority 2003, published 2004).
substance,measurement,setting,value
collagen,time until the filler disappears,depending on the patient and site of injection,within a few months
same,share of the population allergic,in vivo,about 3%
